Source: US20230090389A1 (Novartis AG, priority 2020, published 2023)

Columns and labels:
[1] = tested on: BRAF mutant human cell line xenograft HT29; assay: BRAF mutant human cell line xenograft HT29 in mice; format: in vivo; details: clinically relevant doses
[2] = tested on: six BRAFV600E CRC cell lines; assay: growth inhibition (CellTiter-Glo, 7 days) in six BRAF-mutant CRC cell lines; format: cell-based; details: seven treatment days; dabrafenib 30 nM, Compound A 300 nM, compound B 1.1 μM
Experimental: Compound A: selective ATP-competitive ERK1 and ERK2 kinase inhibitor. Compound B: selective allosteric inhibitor of SHP2. The compounds were dissolved in 100% DMSO and stored at -20° C. as 10 mM stock solutions.
In this study, we used six BRAF-mutant colorectal cancer cell lines. We acquired all the cell lines from ATCC and cultured them at 37° C. 5% CO2 in the recommended media conditions: Colo205, LIM2405, SNUC5 and SW1417: RPMI 1640 (Amimed, #1-41F01-I) supplemented with 1% L-glutamine, 10 mM HEPES (Amimed, #5-31F00-H), 1% Na-pyruvate (Amimed, #5-60F00-H), 10% FCS. MDST8: DMEM high glucose (Amimed, #1-26F01-I) supplemented with 1% L-glutamine, 10% FCS. RKO: EMEM (Amimed, #1-31S01-1) supplemented with 1% L-glutamine, 10% FCS. […]
Seven days after treatment initiation, cell growth was determined using CellTiter-Glo® (Promega, #G7573), which measures the amount of ATP in the well. […] Cell lysis was induced for two minutes on an orbital shaker, the plates were incubated at room temperature for ten minutes, and luminescence was recorded.
To summarize the data of this study clearly, the percentage of growth inhibition versus DMSO (% GI) at single compound concentrations were reported. […] Raw data values were normalized to day 0, the time of treatment initiation, so that the % GI could be calculated. […]

Row | SMILES | anti-tumor response, T/C [1] [% T/C] | cell growth inhibition (% GI vs DMSO) [2]
1 | CNC[C@@H](NC(=O)c1ccc(-c2nc([C@H]3CC[C@H](O)[C@@H](F)C3)cnc2N)cc1F)c1cc(F)cc(Br)c1 [Compound A, 4-(3-amino-6-((1S,3 S,4S)-3-fluoro-4-hydroxycyclohexyl)pyrazin-2-yl)-N-((S)-1-(3-bromo-5-fluorophenyl)-2-(methylamino)ethyl)-2-fluorobenzamide] | 54 | –
2 | C[C@@H]1OCC2(CCN(c3cnc(Sc4ccnc(N)c4Cl)c(N)n3)CC2)[C@@H]1N [Compound B, (3S,4S)-8-(6-amino-5-((2-amino-3-chloropyridin-4-yl)thio)pyrazin-2-yl)-3-methyl-2-oxa-8-azaspiro[4.5]decan-4-amine] | – | no effect
3 | CC(C)(C)c1nc(-c2cccc(NS(=O)(=O)c3c(F)cccc3F)c2F)c(-c2ccnc(N)n2)s1 [Dabrafenib, N-(3-(5-(2-aminopyrimidin-4-yl)-2-(tert-butyl)thiazol-4-yl)-2-fluorophenyl)-2,6-difluorobenzenesulfonamide] | 59 | –
4 | CC(=O)Nc1cccc(-n2c(=O)n(C3CC3)c(=O)c3c(Nc4ccc(I)cc4F)n(C)c(=O)c(C)c32)c1 [Trametinib] | 48 | –
